According to the kinase profiling compilation of Christmann-Franck et al. (2016):

Key:
Experiment in all cases: radiometric filter-binding kinase assay, Kinase HotSpot
Conditions in all cases: compound 0.5 µM; ATP 10 µM
CDK4 CCND1 (human) = CDK4 CCND1 (human) (UniProt P24385+P11802)
DYRK1B (human) = DYRK1B (human) (UniProt Q9Y463)
LTK (human) = LTK (human) (UniProt P29376)
CDK4 CCND3 (human) = CDK4 CCND3 (human) (UniProt P30281+P11802)
CDK7 CCNH MNAT1 (human) = CDK7 CCNH MNAT1 (human) (UniProt P50613+P51948+P51946)
CDK5 CDK5R1 p25 (human) = CDK5 CDK5R1 p25 (human) (UniProt Q00535+Q15078)
CDK6 CCND1 (human) = CDK6 CCND1 (human) (UniProt Q00534+P24385)
CDK6 CCND3 (human) = CDK6 CCND3 (human) (UniProt P30281+Q00534)
CDK9 CCNT1 (human) = CDK9 CCNT1 (human) (UniProt P50750+O60563)
CDK1 CCNA2 (human) = CDK1 CCNA2 (human) (UniProt P06493+P20248)
PRKCH (human) = PRKCH (human) (UniProt P24723)
CDK3 CCNE1 (human) = CDK3 CCNE1 (human) (UniProt Q00526+P24864)
CDK2 CCNE1 (human) = CDK2 CCNE1 (human) (UniProt P24941+P24864)
MAP3K7 TAB1 (human) = MAP3K7 TAB1 (human) (UniProt O43318+Q15750)
CDK2 CCNA2 (human) = CDK2 CCNA2 (human) (UniProt P24941+P20248)
CDK9 CCNK (human) = CDK9 CCNK (human) (UniProt O75909+P50750)
STK33 (human) = STK33 (human) (UniProt Q9BYT3)
CDK1 CCNB1 (human) = CDK1 CCNB1 (human) (UniProt P06493+P14635)
CDK5 CDK5R1 p35 (human) = CDK5 CDK5R1 p35 (human) (UniProt Q00535+Q15078)
NEK7 (human) = NEK7 (human) (UniProt Q8TDX7)
NEK6 (human) = NEK6 (human) (UniProt Q9HC98)
FLT3 (human) = FLT3 (human) (UniProt P36888)
AURKB (human) = AURKB (human) (UniProt Q96GD4)
AURKC (human) = AURKC (human) (UniProt Q9UQB9)

Chain of CDK2 CCNA2 (human) (P20248 whole entry, looked up, other chains not shown): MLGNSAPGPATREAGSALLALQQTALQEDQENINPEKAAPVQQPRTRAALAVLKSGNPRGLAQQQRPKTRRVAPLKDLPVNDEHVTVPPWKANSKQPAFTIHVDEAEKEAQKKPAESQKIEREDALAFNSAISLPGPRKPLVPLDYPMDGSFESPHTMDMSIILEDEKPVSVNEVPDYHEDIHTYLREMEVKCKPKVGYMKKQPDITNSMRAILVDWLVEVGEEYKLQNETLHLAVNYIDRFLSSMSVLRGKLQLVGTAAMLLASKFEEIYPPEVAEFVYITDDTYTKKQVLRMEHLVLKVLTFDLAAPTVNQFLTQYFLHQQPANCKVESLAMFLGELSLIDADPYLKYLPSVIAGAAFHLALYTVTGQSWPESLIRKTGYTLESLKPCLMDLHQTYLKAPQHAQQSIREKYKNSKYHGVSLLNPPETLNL
Chain of CDK1 CCNB1 (human) (P06493 whole entry, looked up): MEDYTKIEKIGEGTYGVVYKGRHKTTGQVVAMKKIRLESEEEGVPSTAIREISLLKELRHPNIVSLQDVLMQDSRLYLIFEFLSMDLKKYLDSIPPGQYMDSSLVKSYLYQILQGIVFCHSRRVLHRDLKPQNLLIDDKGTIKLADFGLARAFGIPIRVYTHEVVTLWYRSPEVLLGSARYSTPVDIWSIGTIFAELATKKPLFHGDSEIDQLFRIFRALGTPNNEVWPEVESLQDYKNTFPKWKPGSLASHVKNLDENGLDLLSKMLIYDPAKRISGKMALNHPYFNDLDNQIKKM
Chain of CDK1 CCNB1 (human) (P14635 whole entry, looked up): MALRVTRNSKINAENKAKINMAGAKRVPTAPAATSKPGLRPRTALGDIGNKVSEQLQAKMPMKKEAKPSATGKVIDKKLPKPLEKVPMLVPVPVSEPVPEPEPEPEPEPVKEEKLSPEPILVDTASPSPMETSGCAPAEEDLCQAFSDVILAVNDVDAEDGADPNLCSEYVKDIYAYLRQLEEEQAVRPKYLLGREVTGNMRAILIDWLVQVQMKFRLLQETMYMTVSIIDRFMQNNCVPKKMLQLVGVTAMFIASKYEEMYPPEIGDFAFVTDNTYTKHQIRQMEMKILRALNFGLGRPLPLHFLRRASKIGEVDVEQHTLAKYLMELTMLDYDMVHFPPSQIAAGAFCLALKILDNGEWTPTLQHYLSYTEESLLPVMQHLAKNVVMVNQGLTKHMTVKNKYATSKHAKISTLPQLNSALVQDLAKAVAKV
Chain of CDK1 CCNA2 (human) (P06493 whole entry, looked up): as the sequence (P06493 whole entry, looked up) above
Chain of CDK1 CCNA2 (human) (P20248 whole entry, looked up): as the sequence (P20248 whole entry, looked up, other chains not shown) above
Chain of MAP3K7 TAB1 (human) (O43318 whole entry, looked up): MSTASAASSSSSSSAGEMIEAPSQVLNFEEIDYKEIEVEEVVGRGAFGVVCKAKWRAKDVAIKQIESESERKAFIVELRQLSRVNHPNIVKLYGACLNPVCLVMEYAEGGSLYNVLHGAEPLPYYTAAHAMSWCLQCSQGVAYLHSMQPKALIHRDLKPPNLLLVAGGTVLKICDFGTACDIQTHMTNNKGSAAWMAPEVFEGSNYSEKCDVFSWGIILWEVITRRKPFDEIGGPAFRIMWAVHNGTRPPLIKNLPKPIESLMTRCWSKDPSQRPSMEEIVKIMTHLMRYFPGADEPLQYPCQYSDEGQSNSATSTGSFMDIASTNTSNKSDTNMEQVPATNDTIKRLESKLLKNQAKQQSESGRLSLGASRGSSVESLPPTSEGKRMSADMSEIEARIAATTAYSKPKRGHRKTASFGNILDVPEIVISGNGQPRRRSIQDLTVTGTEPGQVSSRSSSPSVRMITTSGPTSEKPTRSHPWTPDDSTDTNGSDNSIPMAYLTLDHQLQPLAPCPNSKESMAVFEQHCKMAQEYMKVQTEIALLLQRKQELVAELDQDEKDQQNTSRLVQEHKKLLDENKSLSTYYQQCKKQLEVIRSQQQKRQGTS
Chain of MAP3K7 TAB1 (human) (Q15750 whole entry, looked up): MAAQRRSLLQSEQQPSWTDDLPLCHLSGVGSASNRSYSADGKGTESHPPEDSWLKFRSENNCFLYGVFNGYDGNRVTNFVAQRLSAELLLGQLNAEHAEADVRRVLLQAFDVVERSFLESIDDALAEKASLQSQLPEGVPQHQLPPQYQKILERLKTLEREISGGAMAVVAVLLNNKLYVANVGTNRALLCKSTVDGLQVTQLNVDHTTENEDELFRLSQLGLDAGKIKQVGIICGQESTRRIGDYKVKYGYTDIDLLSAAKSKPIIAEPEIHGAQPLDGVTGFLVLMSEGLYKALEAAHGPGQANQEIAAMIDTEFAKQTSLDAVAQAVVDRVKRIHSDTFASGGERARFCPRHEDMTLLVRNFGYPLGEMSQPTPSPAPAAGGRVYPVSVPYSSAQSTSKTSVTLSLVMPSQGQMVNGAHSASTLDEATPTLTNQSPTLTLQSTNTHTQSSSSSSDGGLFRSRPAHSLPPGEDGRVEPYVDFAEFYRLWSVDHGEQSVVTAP
Chain of CDK4 CCND1 (human) (P11802 whole entry, looked up): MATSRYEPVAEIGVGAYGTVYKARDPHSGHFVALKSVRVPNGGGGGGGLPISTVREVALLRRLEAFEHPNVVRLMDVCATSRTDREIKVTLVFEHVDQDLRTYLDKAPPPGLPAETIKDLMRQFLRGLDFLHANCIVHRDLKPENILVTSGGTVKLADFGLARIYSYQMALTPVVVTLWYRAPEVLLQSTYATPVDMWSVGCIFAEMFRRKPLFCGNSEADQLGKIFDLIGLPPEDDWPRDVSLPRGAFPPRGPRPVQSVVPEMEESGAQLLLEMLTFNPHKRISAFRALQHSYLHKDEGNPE
Chain of CDK4 CCND1 (human) (P24385 whole entry, looked up): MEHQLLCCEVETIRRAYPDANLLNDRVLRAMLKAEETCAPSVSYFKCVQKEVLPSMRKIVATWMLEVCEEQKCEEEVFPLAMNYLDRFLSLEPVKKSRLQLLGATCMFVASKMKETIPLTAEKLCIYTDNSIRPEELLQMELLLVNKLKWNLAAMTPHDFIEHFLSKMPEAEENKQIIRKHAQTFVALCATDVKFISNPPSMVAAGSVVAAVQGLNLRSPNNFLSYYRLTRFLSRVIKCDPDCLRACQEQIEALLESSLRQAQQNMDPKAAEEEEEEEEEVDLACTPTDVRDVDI
Chain of CDK4 CCND3 (human) (P11802 whole entry, looked up): as the sequence (P11802 whole entry, looked up) above
Chain of CDK4 CCND3 (human) (P30281 whole entry, looked up): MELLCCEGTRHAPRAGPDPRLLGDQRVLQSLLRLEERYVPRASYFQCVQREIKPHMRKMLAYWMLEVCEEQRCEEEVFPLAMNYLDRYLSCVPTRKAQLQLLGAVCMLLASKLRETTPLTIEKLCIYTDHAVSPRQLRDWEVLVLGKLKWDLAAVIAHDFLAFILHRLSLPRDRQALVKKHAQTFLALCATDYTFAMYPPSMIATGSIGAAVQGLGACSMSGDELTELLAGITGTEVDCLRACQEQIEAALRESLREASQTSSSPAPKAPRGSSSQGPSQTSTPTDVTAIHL
Chain of CDK5 CDK5R1 p25 (human) (Q00535 whole entry, looked up): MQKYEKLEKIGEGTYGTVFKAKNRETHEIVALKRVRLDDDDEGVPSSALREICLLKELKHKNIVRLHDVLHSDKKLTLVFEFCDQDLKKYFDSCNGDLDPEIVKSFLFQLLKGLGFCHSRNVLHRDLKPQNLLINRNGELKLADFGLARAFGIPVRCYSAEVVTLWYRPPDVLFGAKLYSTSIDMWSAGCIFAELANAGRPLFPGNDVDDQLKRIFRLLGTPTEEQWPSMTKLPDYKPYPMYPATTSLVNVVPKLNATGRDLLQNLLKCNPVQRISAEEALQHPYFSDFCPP
Chain of CDK5 CDK5R1 p25 (human) (Q15078 whole entry, looked up): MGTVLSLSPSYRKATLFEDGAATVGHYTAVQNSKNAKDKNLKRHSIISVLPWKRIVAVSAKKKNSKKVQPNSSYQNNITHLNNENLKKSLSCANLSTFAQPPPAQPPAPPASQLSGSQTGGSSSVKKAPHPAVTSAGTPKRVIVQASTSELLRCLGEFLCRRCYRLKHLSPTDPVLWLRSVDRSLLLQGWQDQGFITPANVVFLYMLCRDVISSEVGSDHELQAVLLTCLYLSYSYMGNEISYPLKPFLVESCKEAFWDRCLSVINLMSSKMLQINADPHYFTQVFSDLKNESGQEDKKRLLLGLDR
Chain of CDK3 CCNE1 (human) (P24864 whole entry, looked up): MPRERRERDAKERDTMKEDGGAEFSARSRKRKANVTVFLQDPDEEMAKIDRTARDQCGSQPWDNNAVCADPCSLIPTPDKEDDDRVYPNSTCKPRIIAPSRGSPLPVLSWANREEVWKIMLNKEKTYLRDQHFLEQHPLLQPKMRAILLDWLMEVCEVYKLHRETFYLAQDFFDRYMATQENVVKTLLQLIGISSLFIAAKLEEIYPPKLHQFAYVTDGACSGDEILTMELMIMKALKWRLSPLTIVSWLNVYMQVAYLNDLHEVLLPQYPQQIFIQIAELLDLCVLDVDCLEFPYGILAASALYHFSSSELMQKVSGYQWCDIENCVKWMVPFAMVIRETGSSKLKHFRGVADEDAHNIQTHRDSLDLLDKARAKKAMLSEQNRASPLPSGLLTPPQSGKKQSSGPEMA
Chain of CDK3 CCNE1 (human) (Q00526 whole entry, looked up): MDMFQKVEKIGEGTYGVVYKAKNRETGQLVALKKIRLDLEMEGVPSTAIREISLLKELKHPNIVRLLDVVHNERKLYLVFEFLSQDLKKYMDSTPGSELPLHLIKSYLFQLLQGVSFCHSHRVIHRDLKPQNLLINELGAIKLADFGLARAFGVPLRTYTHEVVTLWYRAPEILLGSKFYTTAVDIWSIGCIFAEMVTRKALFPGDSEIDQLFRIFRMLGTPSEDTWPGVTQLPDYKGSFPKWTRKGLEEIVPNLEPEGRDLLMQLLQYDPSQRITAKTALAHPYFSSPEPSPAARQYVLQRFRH
Chain of CDK2 CCNE1 (human) (P24864 whole entry, looked up, other chains not shown): as the sequence (P24864 whole entry, looked up) above

Structure (SMILES)	residual activity (CDK4 CCND1 (human)) [%]	residual activity (DYRK1B (human)) [%]	residual activity (LTK (human)) [%]	residual activity (CDK4 CCND3 (human)) [%]	residual activity (CDK7 CCNH MNAT1 (human)) [%]	residual activity (CDK5 CDK5R1 p25 (human)) [%]	residual activity (CDK6 CCND1 (human)) [%]	residual activity (CDK6 CCND3 (human)) [%]	residual activity (CDK9 CCNT1 (human)) [%]	residual activity (CDK1 CCNA2 (human)) [%]	residual activity (PRKCH (human)) [%]	residual activity (CDK3 CCNE1 (human)) [%]	residual activity (CDK2 CCNE1 (human)) [%]	residual activity (MAP3K7 TAB1 (human)) [%]	residual activity (CDK2 CCNA2 (human)) [%]	residual activity (CDK9 CCNK (human)) [%]	residual activity (STK33 (human)) [%]	residual activity (CDK1 CCNB1 (human)) [%]	residual activity (CDK5 CDK5R1 p35 (human)) [%]	further results
CCOc1nc(NC(=O)Cc2cc(OC)ccc2OC)cc(N)c1C#N	97.6	99.2	97.3	95.2	103	96.8	95.2	98.6	100	92.2	94.3	97.7	88.9	96.6	104	89.2	97.7	108	105	
O=C1Nc2ccc3ncsc3c2/C1=C/c1c[nH]cn1		11.3	83								41.2						35.7			residual activity (NEK7 (human)): 79.6%; residual activity (NEK6 (human)): 93.2%
NC(=O)c1ccc(-c2nc(-c3ccccn3)c(-c3ccc4c(c3)OCCO4)[nH]2)cc1	84	100	93.5	94.1	97.6	91	106	104	96.8	97.1	83.3	99.4	93.5	104	95	97.1	98.3	83.9	98	
Cc1cc(Nc2cc(N3CCN(C)CC3)nc(Sc3ccc(NC(=O)C4CC4)cc3)n2)[nH]n1	97.4	98.8	84.2	99.2	101	93.8	95.2	121	93.1	99.1	111	95.3	94.4	90.7	87.8	102	90.1	102	100	residual activity (FLT3 (human)): 6.67%; residual activity (AURKB (human)): 4.89%; residual activity (AURKC (human)): 40.4%
